Assay results published in patent US20150051270A1, “Novel Cyclic Phenoxy Compounds and Improved Treatments for Cardiac and Cardiovascular Disease” (University of Nottingham, priority 2012, published 2015).

Tests used:
human beta2-adrenoceptor = target: T1, human beta2-adrenoceptor (Homo sapiens, UniProt P07550); assay: 3H-CGP 12177 whole cell binding, beta2; settings: 3H-CGP12177 whole-cell binding, CHO cells expressing human beta2-adrenoceptor, given as negative Log KD; for Kd: read-out: Beta 2 Log KD (converted)
T1 construct: expressed in transfected cells; host or cells: CHO cells
Protocol: (§1) Selectivity of ligands for the three beta-adrenoceptors was assessed by whole-cell binding studies using ^3H-CGP12177 in CHO cells expressing the human beta1, beta2 or beta3-adrenoceptors respectively essentially as described by Baker (2005; Br. J Pharmacol: 144, 317-22). Values shown are KD values determined as described by Baker (2005). KD represents the concentration of compound required to occupy 50% of the receptors in cells or tissues.
(§2) The selectivity of a ligand is given by the ratio of beta-1 to beta-2 KD. Accordingly a difference of one in the logarithmic values thereof represents a 10-fold selectivity, a difference of 2 represents 100-fold selectivity and a difference of 3 represents 1000-fold selectivity etc.

human beta1-adrenoceptor = target: T2, human beta1-adrenoceptor (Homo sapiens, UniProt P08588); assay: 3H-CGP 12177 whole cell binding, beta1; settings: 3H-CGP12177 whole-cell binding, CHO cells expressing human beta1-adrenoceptor, given as negative Log KD; for Kd: read-out: Beta 1 Log KD (converted)
T2 construct: expressed in transfected cells; host or cells: CHO cells
T2 sequence (P08588 whole entry): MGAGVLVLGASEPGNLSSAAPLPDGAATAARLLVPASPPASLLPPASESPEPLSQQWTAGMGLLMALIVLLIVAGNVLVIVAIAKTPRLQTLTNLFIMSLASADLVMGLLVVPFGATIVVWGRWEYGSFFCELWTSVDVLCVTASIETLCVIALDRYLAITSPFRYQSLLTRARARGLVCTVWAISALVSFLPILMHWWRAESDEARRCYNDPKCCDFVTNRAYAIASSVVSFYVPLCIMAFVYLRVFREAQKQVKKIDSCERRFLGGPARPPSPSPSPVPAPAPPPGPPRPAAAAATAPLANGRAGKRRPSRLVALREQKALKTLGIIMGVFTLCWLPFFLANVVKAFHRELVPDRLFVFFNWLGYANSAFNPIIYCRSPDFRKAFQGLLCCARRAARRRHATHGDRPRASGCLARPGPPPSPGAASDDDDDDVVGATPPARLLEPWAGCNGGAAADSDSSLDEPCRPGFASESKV
Protocol: as §1, §2

Row | Molecule | Beta 2 Log KD (human beta2-adrenoceptor) | Beta 1 Log KD (human beta1-adrenoceptor) | melting point | Kd (human beta2-adrenoceptor) | Kd (human beta1-adrenoceptor)
1 | 1-(2-(3-(3-(Ethoxymethyl)-2,3-dihydrobenzo[b][1,4]dioxin-6-yloxy)-2-hydroxypropylamino)ethyl)-3-(4-hydroxyphenyl)urea and 1-(2-(3-(2-(ethoxymethyl)-2,3-dihydrobenzo[b][1,4]dioxin-6-yloxyl-2-hydroxypropylamino)ethyl)-3-(4-hydroxyphenyl)urea [Example 76] | −4.69 | −6.84 |  |  | 
2 | O=C(NCCNCC(O)C1COc2ccccc2O1)Nc1ccc(O)cc1 (mixture of isomers) [Example 46b, 1-(2-(2-(2,3-dihydrobenzo[b][1,4]dioxin-2-yl)-2-hydroxyethylamino)ethyl)-3-(4-hydroxyphenyl)urea] |  |  | 141 °C | 0.0977 µM | 11 nM
3 | O=C(NCCNCC(O)COc1ccc2c(c1)OC(c1ccccc1)CC2=O)Nc1cccc(Cl)c1 (stereo not shown) [Example 4a, 1-(3-chlorophenyl)-3-(2-(2-hydroxy-3-(4-oxo-2-phenylchroman-7-yloxy)propylamino)ethyl)urea] |  |  |  | 3.09 µM | 407 nM
4 | O=C(NCCNCC(O)COc1ccc2oc(-c3ccccc3)cc(=O)c2c1)Nc1cccc(Cl)c1 (stereo not shown) [Example 4b, 1-(3-chlorophenyl)-3-(2-(2-hydroxy-3-(4-oxo-2-phenyl-4H-chromen-6-yloxy)propylamino)ethyl)urea] |  |  | 165 °C | 4.47 µM | 617 nM
5 | O=C(NCCNCC(O)COc1ccc2oc(=O)ccc2c1)Nc1cccc(Cl)c1 (stereo not shown) [Example 4c, 1-(3-chlorophenyl)-3-(2-(2-hydroxy-3-(2-oxo-2H-chromen-6-yloxy)propylamino)ethyl)urea] |  |  | 160 °C | 9.33 µM | 355 nM
6 | Cc1cc(=O)oc2ccc(OCC(O)CNCCNC(=O)Nc3cccc(Cl)c3)cc12 (stereo not shown) [Example 4d, 1-(3-chlorophenyl)-3-(2-(2-hydroxy-3-(4-methyl-2-oxo-2H-chromen-6-yloxy)propylamino)ethyl)urea] |  |  | 158 °C | 4.47 µM | 389 nM
7 | CCOC(=O)c1cc2cc(OCC(O)CNCCNC(=O)Nc3cccc(Cl)c3)ccc2o1 (stereo not shown) [Example 24a, Ethyl-5-(3-(2-(3-(3-Chlorophenyl)ureido)ethylamino)-2-hydropropoxy)benzofuran-2-carboxylate] | −5.27 | −6.50 |  |  | 
8 | NC(=O)c1cc2cc(OCC(O)CNCCNC(=O)Nc3cccc(Cl)c3)ccc2o1 (stereo not shown) [Example 24b, 5-(3-(2-(3-(3-chlorophenyl)ureido)ethylamino)-2-hydropropoxy)benzofuran-2-carboxamide] |  |  |  | 6.46 µM | 501 nM
9 | O=C(NCCNCC(O)C1COc2ccccc2O1)Nc1cccc(Cl)c1 (stereo not shown) [Example 46a, 1-(3-chlorophenyl)-3-(2-(2-(2,3-dihydrobenzo[b][1,4]dioxin-2-yl)-2-hydroxyethylamino)ethyl)urea] |  |  | 141 °C | 0.0575 µM | 3.98 nM

Now from value to molecule:

Row | Beta 2 Log KD (human beta2-adrenoceptor) | Beta 1 Log KD (human beta1-adrenoceptor) | melting point | Kd (human beta2-adrenoceptor) | Kd (human beta1-adrenoceptor) | Molecule
10 | −5.16 | −6.55 |  |  |  | 1-(2-(2-Hydroxy-3-(2-methylbenzofuran-5-yloxy)propylamino)ethyl)-3-(4-hydroxyphenyl)urea [Example 610c]
11 |  |  |  | 26.9 µM | 537 nM | O=C(NCCNCC(O)C1Cc2cc(OCCOC3CCCC3)ccc2O1)Nc1ccc(O)cc1 (stereo not shown) [Example 63a, 1-(2-(2-(5-(2-(cyclopentyloxy)ethoxy)-2,3-dihydrobenzofuran-2-yl)-2-hydroxyethylamino)ethyl)-3-(4-hydroxyphenyl)urea]
12 |  |  |  | 44.7 µM | 155 nM | O=C(NCCNCC(O)c1cc2cc(OCCOC3CCCC3)ccc2o1)Nc1ccc(O)cc1 (stereo not shown) [Example 63b, 1-(2-(2-(5-(2-(cyclopentyloxy)ethoxy)benzofuran-2-yl)-2-hydroxyethylamino)ethyl)-3-(4-hydroxyphenyl)urea]
13 |  |  | 152.5 °C | 0.525 µM | 46.8 nM | Cc1ccc2cc(C(O)CNCCNC(=O)Nc3ccc(O)cc3)oc2c1 (stereo not shown) [Example 63c]
14 |  |  | 151 °C | 3.16 µM | 224 nM | COc1ccc2oc(C(O)CNCCNC(=O)Nc3ccc(O)cc3)cc2c1 (stereo not shown) [Example 63d]
15 |  |  | 131.5 °C | 10.2 µM | 257 nM | CCOCc1cc2cc(OCC(O)CNCCNC(=O)Nc3ccc(O)cc3)ccc2o1 (stereo not shown) [Example 610a, 1-(2-(3-(2-(Ethoxymethyl)benzofuran-5-yloxy)-2-hydroxypropylamino)ethyl)-3-(4-hydroxyphenyl)urea]
16 | −4.79 | −6.78 |  |  |  | CCOCC1Cc2cc(OCC(O)CNCCNC(=O)Nc3ccc(O)cc3)ccc2O1 (stereo not shown) [Example 610b]
